We go through one molecule from patent US20250177405A1, “METHODS OF TREATING NEUROLOGICAL AND CARDIOVASCULAR CONDITIONS” (ASTROCYTE PHARMACEUTICALS, INC., priority 2021, published 2025).

Data set [1] has as its system cynomolgus monkey model of transient middle cerebral artery occlusion (tMCAO). Description: transient middle cerebral artery occlusion (tMCAO) stroke model, MRI lesion and penumbra volume. In kind it is in vivo, Macaca fascicularis. As to conditions: for overall DWI lesion volume smaller compared to vehicle: I-1 composite. From the text: A total of 25 adult male Macaca fascicularis macaques were used in this study, with ages ranging from 47-83 months and weights ranging from 2.7-5.4 kg.
Under deep anesthesia, the right eyeball was removed, and the orbital content was dissected and excised using a surgical microscope (KOM300, Konan Medical Inc., Hogo, Japan). A window of approximately 10 mm in diameter was opened just anterior to the foramen of the optic canal at the base of the skull, allowing identification of the right middle cerebral artery (MCA) main trunk beneath the dura. After opening the dura mater, tMCAO was performed using 2 microvascular clips (Sugita TII, 17-001-81, Mizuho Medical, Tokyo, Japan), one on the proximal part of the main MCA trunk and the other on the distal-to-orbitofrontal brunch. Four hours after tMCAO, these clips were removed. After visual confirmation of recanalization of MCA blood flow, the burr hole was closed using Clearfil New Bond (Kuraray Noritake Dental, Inc., Tokyo, Japan) and the orbital cavity was closed according to best veterinary practice.
Transorbital transient MCA occlusion (tMCAO) was performed using 2 microvascular clips, one placed on the proximal part of the main MCA trunk and the other on the distal-to-orbitofrontal branch (references 10, 11, 24). Four hours after MCA occlusion, these clips were removed for recanalization. After visual confirmation of restituted MCA blood flow, the burr hole was closed using Clearfil New Bond (Kuraray Noritake Dental, Inc., Tokyo, Japan) and the orbital cavity was closed according to best veterinary practice.
Serial coronal magnetic resonance imaging (MRI) of the brain (3 mm slice thickness) was performed 0.5, 1.5, 1.8, 3.5, 6.0, 24 and 120 h post-occlusion. Imaging sequences were (i) diffusion-weighted imaging (DWI), arterial spin labeling (ASL), (ii) magnetic resonance angiography (MRA), and (iii) fluid-attenuated inversion-recovery (FLAIR) T2-weighted imaging. Apparent diffusion coefficient (ADC) maps, cerebral blood flow (CBF), and perfusion deficit were generated with FuncTool Performance (GE Healthcare, Milwaukee, WI, USA) available on the MRI scanner console. Inhibition of lesion volume was considered the primary efficacy endpoint. Penumbral volume (mm^3) was calculated by subtracting the lesion volume delineated from the DWI diffusion maps from the total calculated perfusion deficit.
The infarct (lesion) areas (mm^2) of each coronal image were marked using OsiriX version 8.0.2 (Pixmeo SARL, Bernex, Switzerland). The infarct was manually delineated using DWI maps. The lesion volume (mm^3) was calculated as the sum of the product of each section's infarct area and slice thickness (3 mm). […] The perfusion deficit (mm^3) was calculated from ASL maps as a reduction to <30% and <50% of the corresponding region of the contralateral side. […] Penumbral volume (mm^3) was calculated by subtracting the lesion volume delineated from the DWI diffusion maps from the total calculated perfusion deficit.
Macaques received a bolus dose of vehicle (40% PEG400 in 0.9% saline) or I-1 into a saphenous vein 2 h after occlusion (2 h prior to restoration of MCA blood flow), followed immediately by a 22 h intravenous infusion. This dosing regimen was designed to rapidly achieve and maintain pre-determined plasma and cerebrospinal fluid (CSF) steady-state concentrations of I-1 based on its pharmacokinetics previously determined in näive and MCA occluded macaques (Tables A-C below).

Data set [2] in a line: neonatal pig pharmacokinetics: CSF versus brain extracellular fluid concentrations. As to conditions: brain equilibrium dialysis. Type of data set: in vivo. From the text:
Using this receptor occupancy estimate, we advanced to studies in neonatal pigs, targeting doses that would yield unbound brain and CSF concentrations that would provide a similar receptor occupancy to that associated with efficacy in the rodent models. In the pig, we had the advantage of conducting pharmacokinetic studies involving CSF collection, brain equilibrium dialysis to directly determine brain unbound extracellular fluid concentrations, plasma concentrations and finally total brain concentrations. […] This was a key study to validate the use of I-1 CSF concentrations to estimate brain receptor occupancy. In the pig efficacy studies, we achieved efficacy at estimated receptor occupancies of around 2%.
Animals. Four-week old female neonatal pigs weighing approximately 7.5 Kg may be used for this study. Animals are equipped with brain microdialysis probes to obtain brain extracellular fluid samples for drug concentration determinations during the study.
Tissue Sampling: Blood samples are obtained at 0.25, 0.5, 1, 2, 4 and 6 hours post-dose. […]
Plasma, brain, brain extracellular fluid and cerebrospinal fluid concentrations of test compound are determined by LC-MS/MS utilizing tolbutamide as an internal standard. For each tissue matrix, standard curves are created and LLOQ/ULOQ concentrations determined.

Molecules are shown by their SMILES.

For `CSc1nc(N)c2ncn([C@H]3C(O)C(O)[C@]4(CO)C[C@H]34)c2n1` (stereo in doubt) [Compound I-1], the “lesion growth rate (slope of lesion growth) after treatment initiation” value in data set [1] (1.8-6.0 h post-occlusion, versus vehicle and pre-treatment, composite p=0.004) is recorded as “rapid decrease in lesion growth rate”. Further, the “decrease in penumbra volume during the ischemic period” value in data set [1] (I-1-treated composite (n=16), 0.5 h to 3.5 h post-occlusion, vehicle 71%, p=0.01) worked out at 48%. Besides, in data set [1] (I-1-treated composite, vehicle 604.5 mm^3/h), the “rate of penumbra volume decrease” value turned out to be 296.0 mm^3/h. The “overall DWI lesion volume smaller compared to vehicle” value in data set [1] (24 h post-occlusion, p=0.07) was 20%; in data set [1] (120 h post-occlusion, p=0.05), 30%. For the same molecule, the “I-1 concentrations in the CSF versus unbound brain extracellular fluid” value in data set [2] is given as “equal to unbound brain extracellular fluid concentrations”.
